The source made the active and inactive calls.
Legend:
[1] = target: T1, Zinc finger protein mex-5 (Caenorhabditis elegans, UniProt Q9XUB2); assay: potency of MEX-5 RNA-binding blockers – biochemical, C. elegans, fluorescence polarization, dose response (AID 1960)
T1 sequence (Q9XUB2 whole entry): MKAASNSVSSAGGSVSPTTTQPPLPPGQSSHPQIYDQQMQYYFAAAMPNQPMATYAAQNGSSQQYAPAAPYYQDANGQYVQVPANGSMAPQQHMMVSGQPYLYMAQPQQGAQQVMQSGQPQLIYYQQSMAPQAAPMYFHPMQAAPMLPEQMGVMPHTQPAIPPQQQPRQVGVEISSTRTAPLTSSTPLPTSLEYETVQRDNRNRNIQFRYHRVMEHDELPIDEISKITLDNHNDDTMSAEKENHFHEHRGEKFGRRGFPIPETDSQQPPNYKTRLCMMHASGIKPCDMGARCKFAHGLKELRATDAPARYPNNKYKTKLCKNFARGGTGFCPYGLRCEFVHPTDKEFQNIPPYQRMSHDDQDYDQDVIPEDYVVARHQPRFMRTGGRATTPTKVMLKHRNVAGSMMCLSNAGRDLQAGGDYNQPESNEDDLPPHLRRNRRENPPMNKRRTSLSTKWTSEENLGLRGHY

[2] = target: Long-chain-fatty-acid--AMP ligase FadD28 (Mycobacterium tuberculosis, UniProt P9WQ59); assay: Fluorescence polarization aasay to screen for inhibitors that compete for the binding of FadD28 to a bisubstrate Measured in Biochemical System Using Plate Reader - 2147-01_Inhibitor_Dose_CherryPick_Activity.; type: functional, Mycobacterium tuberculosis H37Rv
[3] = target: T2, RNA-binding protein pos-1 (Caenorhabditis elegans, UniProt G5EF15); assay: disruptors of C. elegans POS-1 RNA interaction – biochemical, fluorescence polarization, dose response (AID 1964);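 also: purified POS-1 fused to maltose binding protein made in E. coli; potency of compounds blocking POS-1 binding to fluorescent RNA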
T2 sequence (G5EF15 whole entry): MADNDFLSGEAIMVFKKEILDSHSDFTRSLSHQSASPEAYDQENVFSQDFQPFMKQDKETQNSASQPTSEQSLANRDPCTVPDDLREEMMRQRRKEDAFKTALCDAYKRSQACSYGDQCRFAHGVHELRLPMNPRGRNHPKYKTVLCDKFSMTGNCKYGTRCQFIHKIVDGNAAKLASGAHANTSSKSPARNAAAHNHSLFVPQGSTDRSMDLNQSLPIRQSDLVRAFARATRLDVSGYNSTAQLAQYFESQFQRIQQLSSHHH

[4] = target: T3, Rac GTPase-activating protein 1 (Homo sapiens, UniProt Q9H0H5); assay: blockers of MgcRacGAP-driven Rac1 GTP hydrolysis – biochemical, ADP Hunter fluorescence, primary and confirmatory, confirmation (AID 624330); type: functional
T3 sequence (Q9H0H5 whole entry): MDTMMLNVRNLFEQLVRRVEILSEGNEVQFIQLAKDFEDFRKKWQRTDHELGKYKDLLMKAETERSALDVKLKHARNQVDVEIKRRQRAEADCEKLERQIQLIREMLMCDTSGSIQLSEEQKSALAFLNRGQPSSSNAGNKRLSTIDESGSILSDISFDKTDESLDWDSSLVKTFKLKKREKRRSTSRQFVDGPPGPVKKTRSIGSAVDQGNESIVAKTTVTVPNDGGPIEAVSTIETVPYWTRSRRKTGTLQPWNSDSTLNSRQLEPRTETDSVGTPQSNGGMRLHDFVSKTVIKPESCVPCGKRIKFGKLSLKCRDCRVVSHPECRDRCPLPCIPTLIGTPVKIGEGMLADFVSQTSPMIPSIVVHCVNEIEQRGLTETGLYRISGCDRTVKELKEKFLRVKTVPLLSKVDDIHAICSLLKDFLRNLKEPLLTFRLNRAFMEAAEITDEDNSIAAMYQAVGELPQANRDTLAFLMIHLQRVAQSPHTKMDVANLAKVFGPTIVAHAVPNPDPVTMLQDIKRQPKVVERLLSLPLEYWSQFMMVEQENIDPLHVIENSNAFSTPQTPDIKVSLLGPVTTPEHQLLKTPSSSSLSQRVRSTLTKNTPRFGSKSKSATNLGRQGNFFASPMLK

[5] = target: T4, Sentrin-specific protease 8 (Homo sapiens, UniProt Q96LD8); type: functional
T4 sequence (Q96LD8 whole entry): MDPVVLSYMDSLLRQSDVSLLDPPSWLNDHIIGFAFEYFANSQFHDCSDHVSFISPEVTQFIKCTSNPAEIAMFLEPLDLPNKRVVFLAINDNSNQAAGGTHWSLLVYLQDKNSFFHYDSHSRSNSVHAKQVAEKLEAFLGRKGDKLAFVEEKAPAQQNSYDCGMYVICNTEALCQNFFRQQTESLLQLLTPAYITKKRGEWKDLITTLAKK

Protein RecA = target: T5, Protein RecA (Mycobacterium tuberculosis, UniProt P9WHJ3); assay: Fluorescence Cell-Free Homogeneous Dose Retest to Identify Inhibitors of RecA-Intein Splicing Activity. [Related pubchem assays (depositor defined):AID2097, AID2223, AID489010, AID492950]; type: functional
T5 sequence (P9WHJ3 whole entry): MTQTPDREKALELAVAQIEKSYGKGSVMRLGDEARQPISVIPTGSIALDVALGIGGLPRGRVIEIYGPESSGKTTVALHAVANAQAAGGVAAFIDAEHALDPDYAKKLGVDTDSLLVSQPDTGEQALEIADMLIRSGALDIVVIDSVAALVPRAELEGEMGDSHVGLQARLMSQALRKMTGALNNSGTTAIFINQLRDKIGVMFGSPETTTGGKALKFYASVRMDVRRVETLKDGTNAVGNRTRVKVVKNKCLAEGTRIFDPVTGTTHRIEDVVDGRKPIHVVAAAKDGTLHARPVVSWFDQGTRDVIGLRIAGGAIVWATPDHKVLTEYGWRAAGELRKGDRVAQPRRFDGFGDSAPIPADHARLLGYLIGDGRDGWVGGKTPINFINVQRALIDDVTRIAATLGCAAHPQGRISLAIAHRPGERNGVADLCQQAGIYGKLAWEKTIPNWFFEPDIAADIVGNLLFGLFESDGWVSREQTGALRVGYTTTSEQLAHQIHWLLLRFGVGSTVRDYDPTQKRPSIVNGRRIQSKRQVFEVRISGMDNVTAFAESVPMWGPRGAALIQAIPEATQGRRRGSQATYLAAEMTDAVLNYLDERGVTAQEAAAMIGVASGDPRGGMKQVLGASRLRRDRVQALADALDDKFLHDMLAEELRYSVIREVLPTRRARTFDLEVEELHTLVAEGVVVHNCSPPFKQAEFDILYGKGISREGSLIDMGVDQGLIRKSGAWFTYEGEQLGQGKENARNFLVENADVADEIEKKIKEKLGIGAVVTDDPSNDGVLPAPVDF

[6] = target: T4, Sentrin-specific protease 8; type: functional; remark: listed apart in the source
[7] = target: T6, Replicative DNA helicase DnaB (Mycobacterium tuberculosis, UniProt P9WMR3); assay: DnaB intein splicing inhibitors, dose response, biochemical, cell-free fluorescence (AID 449749); type: functional
T6 sequence (P9WMR3 whole entry): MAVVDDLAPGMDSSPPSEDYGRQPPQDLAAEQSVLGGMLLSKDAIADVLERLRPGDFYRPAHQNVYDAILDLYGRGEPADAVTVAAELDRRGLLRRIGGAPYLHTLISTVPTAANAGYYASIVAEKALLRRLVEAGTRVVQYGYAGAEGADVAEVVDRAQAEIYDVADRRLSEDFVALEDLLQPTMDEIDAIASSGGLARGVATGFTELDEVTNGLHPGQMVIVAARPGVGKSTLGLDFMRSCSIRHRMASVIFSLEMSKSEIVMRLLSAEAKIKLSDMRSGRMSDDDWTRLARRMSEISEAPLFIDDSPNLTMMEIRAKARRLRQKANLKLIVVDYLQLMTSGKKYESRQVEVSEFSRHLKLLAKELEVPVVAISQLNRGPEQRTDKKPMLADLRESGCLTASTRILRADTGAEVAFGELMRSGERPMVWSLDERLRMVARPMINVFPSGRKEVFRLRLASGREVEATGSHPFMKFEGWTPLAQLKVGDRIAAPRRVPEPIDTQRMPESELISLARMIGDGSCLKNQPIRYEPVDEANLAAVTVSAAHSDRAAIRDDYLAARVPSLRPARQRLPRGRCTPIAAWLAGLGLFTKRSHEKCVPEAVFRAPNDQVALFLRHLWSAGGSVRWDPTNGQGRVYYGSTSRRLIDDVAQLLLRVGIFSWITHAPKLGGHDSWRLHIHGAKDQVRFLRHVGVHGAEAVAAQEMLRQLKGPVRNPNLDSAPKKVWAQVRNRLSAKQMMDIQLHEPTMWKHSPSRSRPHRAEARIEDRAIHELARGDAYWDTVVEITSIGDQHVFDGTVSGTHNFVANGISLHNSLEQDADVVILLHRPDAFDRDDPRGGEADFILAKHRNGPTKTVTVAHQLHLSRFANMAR

Beta-lactamase [8] = target: Beta-lactamase (Pseudomonas aeruginosa, UniProt Q79MP6);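 also: biochemical dose-response test of metallo-beta-lactamase enzyme inhibition, read out by epi-absorbance; purified recombinant IMP-1 metallo-beta-lactamase with nitrocefin as substrate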
Beta-lactamase [9] = target: Beta-lactamase (Salmonella choleraesuis (strain SC-B67), UniProt Q5J463)
[10] = target: T7, Trace amine-associated receptor 1 (Homo sapiens, UniProt Q96RJ0); assay: Counterscreen for agonists of the human trace amine associated receptor 1 (hTAAR1): Fluorescence-based cell-based high throughput dose response assay to identify hTAAR1 agonist that also desensitize TAAR1 receptor response.; type: functional
cells [11] = type: functional, cell-based
[12] = target: T7, Trace amine-associated receptor 1; assay: Fluorescence-based cell-based high throughput dose response assay to identify agonists of the human trace amine associated receptor 1 (TAAR1).; type: functional
cells [13] = type: functional, cell-based; remark: listed apart in the source
Mu-type opioid receptor = Mu-type opioid receptor (Homo sapiens, UniProt P35372); type: functional, cell-based;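 also: U2OS cells with beta-arrestin recruitment to OPRM1 by beta-gal complementation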
[14] = target: 5-hydroxytryptamine receptor 2A (Mus musculus, UniProt P35363); type: functional, cell-based;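 also: CHO-K1 cells with tagged receptor and beta-arrestin; agonist potency measured as compound-induced activation of the receptor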
5-hydroxytryptamine receptor 2A, sequence (P35363 whole entry): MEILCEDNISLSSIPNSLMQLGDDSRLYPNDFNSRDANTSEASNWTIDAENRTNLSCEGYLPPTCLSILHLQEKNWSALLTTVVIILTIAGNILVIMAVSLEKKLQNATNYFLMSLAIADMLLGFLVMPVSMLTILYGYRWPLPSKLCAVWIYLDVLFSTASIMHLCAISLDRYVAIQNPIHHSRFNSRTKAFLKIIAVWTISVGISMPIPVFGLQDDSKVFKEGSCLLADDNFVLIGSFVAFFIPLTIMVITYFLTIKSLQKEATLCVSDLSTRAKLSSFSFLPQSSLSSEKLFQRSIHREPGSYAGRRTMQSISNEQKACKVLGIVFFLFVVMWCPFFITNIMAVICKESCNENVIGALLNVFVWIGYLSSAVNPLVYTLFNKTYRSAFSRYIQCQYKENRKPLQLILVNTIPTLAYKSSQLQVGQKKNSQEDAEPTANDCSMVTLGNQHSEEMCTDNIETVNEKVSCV

T7 sequence (Q96RJ0 whole entry): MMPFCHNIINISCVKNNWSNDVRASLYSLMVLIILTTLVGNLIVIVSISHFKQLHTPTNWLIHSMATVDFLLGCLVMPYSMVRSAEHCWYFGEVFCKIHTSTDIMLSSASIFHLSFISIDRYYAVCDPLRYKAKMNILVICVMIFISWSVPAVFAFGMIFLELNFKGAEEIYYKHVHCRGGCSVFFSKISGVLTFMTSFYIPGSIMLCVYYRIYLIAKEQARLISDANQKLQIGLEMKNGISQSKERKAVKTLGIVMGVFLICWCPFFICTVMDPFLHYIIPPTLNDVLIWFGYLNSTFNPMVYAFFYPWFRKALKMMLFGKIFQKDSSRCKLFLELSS
Long-chain-fatty-acid--AMP ligase FadD28, sequence (P9WQ59 whole entry, the tested form may be a part): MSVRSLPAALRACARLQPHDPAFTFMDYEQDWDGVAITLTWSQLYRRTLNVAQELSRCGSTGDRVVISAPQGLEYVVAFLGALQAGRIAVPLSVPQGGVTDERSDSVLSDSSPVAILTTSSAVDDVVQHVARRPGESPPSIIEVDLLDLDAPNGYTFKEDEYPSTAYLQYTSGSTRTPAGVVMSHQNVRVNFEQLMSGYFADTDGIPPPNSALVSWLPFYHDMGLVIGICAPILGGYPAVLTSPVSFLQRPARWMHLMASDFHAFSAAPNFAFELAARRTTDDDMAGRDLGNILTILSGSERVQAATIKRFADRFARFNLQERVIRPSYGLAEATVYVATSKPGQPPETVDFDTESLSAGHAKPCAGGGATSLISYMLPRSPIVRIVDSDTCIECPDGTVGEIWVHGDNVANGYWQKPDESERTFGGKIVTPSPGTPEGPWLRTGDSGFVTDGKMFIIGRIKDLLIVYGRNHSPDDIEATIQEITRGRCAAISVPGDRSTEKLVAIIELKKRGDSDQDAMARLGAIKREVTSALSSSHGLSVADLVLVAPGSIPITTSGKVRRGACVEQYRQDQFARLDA
Beta-lactamase (Salmonella choleraesuis (strain SC-B67), UniProt Q5J463), sequence (Q5J463 whole entry): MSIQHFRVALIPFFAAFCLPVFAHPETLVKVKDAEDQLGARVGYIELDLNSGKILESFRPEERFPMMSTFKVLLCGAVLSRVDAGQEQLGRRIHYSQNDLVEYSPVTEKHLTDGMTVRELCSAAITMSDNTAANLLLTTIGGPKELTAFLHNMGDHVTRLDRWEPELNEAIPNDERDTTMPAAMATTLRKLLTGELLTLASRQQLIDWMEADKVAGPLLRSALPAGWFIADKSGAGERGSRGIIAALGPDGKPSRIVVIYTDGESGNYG
Mu-type opioid receptor, sequence (P35372 whole entry): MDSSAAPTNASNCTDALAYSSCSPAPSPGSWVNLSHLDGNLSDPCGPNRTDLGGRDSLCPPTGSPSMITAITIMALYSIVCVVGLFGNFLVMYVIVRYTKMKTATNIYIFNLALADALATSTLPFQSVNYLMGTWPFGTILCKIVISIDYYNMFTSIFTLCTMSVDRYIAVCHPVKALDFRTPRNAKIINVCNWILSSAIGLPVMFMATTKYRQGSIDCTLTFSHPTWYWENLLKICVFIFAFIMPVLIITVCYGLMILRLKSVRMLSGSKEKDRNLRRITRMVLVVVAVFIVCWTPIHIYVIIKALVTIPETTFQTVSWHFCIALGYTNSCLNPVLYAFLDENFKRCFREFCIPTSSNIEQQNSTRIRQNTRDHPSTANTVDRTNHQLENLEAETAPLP
Beta-lactamase (Pseudomonas aeruginosa, UniProt Q79MP6), sequence (Q79MP6 whole entry): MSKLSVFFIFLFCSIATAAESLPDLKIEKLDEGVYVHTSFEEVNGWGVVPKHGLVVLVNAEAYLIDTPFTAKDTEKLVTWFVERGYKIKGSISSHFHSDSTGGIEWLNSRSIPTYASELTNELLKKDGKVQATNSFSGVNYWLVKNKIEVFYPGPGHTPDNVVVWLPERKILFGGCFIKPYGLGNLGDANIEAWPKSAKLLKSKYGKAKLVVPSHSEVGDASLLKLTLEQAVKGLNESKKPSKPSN

Q: What does the source list for `O=C(CNS(=O)(=O)c1ccc([N+](=O)[O-])cc1)N/N=C/c1ccc(O)cc1O`?
A: EC50 [1]: 8.33 µM (active); AC50 [2]: 9.67 µM (active); EC50 [3]: 8.98 µM (active); IC50 [4]: 128 µM (active)

Q: Which results are given for `COC(=O)CCCC1=CC2=C(c3ccccc3)C(=O)C(C)(OC(=O)C3CCCC3)C(=O)C2=CN1CCCCO` (stereo unspecified)?
A: IC50 [5]: 2.93 µM (active); EC50 (Protein RecA): 18.4 µM (active); IC50 [6]: 6.43 µM (active); AC50 [7]: 68.9 µM (active)

Q: For `COc1ccc(-c2occ(C(=O)O)c2C(=O)O)cc1`, which IC50 (Beta-lactamase [8]) is on record?
A: 23.5 µM (inactive)

Q: And the IC50 (Beta-lactamase [9])?
A: > 59.6 µM (inactive)

Q: With `O=C(C(=O)N1CCc2ccccc2C1)c1cn(CC(=O)N2CCCCC2)c2ccccc12` as the compound, how does the IC50 [10] read?
A: 3.57 µM (active)

Q: And the IC50 (cells [11])?
A: > 29.9 µM (inactive)

Q: And the EC50 [12]?
A: 0.879 µM (active)

Q: What about the EC50 (cells [13]) of the same compound?
A: > 29.9 µM (inactive)

Q: For `Clc1ccc(CN2CCN(c3ncccn3)CC2)cc1`, which EC50 (Mu-type opioid receptor) is on record?
A: 92.5 µM (inactive)

Q: What about the EC50 [14] of the same compound?
A: 0.153 µM (active)

Reference: ChEMBL document CHEMBL1201862, “PubChem BioAssay data set” (2004)
